Laboratory results reported in patent publication US20140045809A1, “CORROLES FOR NEUROPROTECTION AND NEURORESCUE” (priority 2008, published 2014).
“Also recorded” adds a separate entry of the source.

What was measured:
RIN-m cells [1] = assay: Protection of RIN-m beta cells against H2O2 toxicity (MTT); assay type: cell-based, rat; settings: for cytoprotective effect against H2O2-induced toxicity: H2O2 150 μM
Experimental: Two insulin-secreting beta cell lines, rat insulinoma (INS-1E) and RIN-m cells, were used to examine the protective effect of corrole 1C-Fe. The cells were cultured at 37° C., in a humid 5% CO2, 95% air environment in regular RPMI-1640 medium (Invitrogen) supplemented with 5% fetal calf serum (FCS).
After 2 days of culture, RIN-m cells (5×10^4 cells/well in 96-well plates) were treated with corrole 1C-Fe (1-50 μM) before addition of 35 μM of H2O2. Cell viability was evaluated by a colorimetric assay for mitochondrial function estimation using the MTT test as previously described (Gassen et al., 1998) and expressed as percentage of control.
RIN-m cells were grown as described in Example 5. After 3 days of culture, RIN-m cells (2.5×10^4 cells/well in 96-well plates) were treated with corroles 1C-Fe or 5C-Fe or porphyrin 1P-Fe (1 and 20 μM), added 30 min prior to treatment with 35 μM H2O2 and further incubated for 24 h. Cell injury was evaluated by MTT test. […] […].
Protective effect of iron(III) corrole complexes against H2O2-induced toxicity (150 μM) was compared to that of manganese(III) corroles and related porphyrin. […].

RIN-m cells [2] = assay: Protection of RIN-m cells against SIN-1 toxicity (MTT); assay type: cell-based, rat; settings: 24 h; for protective effect against SIN-1 induced toxicity (MTT), comparative: 0.1-20 μM, 30 min before SIN-1 (800 μM)
Experimental: INS-1E cells or RIN-m cells were cultured in RPMI with low serum content (2% FCS), placed in microtiter plates (96 wells) at a density of 2.5×10^4 cells/well and allowed to attach for 24 h before treatment. Corroles 1C-Fe and 5C-Fe (10 μM) were added 30 min prior to insult with the nitric oxide donor SIN-1 (500 or 600 μM) for a subsequent 24 h period. Cell viability was evaluated by a colorimetric assay for mitochondrial function using 3-(4,5-dimethylthiazol-2-yl)-2,5-diphenyltetrazolium bromide (MTT test), and expressed as percentage of untreated control. Values higher than 100% reflect increased mitochondrial activity induced by the drug. The results represent the mean±SEM of three independent experiments performed under the same conditions.
Insulin-secreting RIN-m cells were incubated in RPMI with low serum content (2% FCS) and placed in microtiter plates (96 wells) at a density of 2.5×10^4 cells/well and allowed to attach for 24 h before treatment. Cells were treated with corroles 1C-Fe, 1C-Mn or 2C-Mn or porphyrins 1P-Fe or 2P-Mn, in various concentrations (0.1-20 μM), for 30 min prior to insult with SIN-1 (800 μM) for a subsequent 24 h period. Cell viability was evaluated by MTT test and expressed as percentage of untreated control.

SH-SY5Y cells [3] = assay: Neuroprotection/neurorescue against SIN-1-induced cell death in SH-SY5Y cells; assay type: cell-based, human; settings: for protection against SIN-1 (MTT reduction analysis and ELISA assay): 30 min before SIN-1, 24 h (Example 12)
Experimental: SH-SY5Y cells were cultured in DMEM-Eagle/F-12(HAM) (1:1) containing 10% FCS. Cells were resuspended in medium containing 2% FCS, seeded in microtiter plates (96 wells) and allowed to attach for 24 h before initiation of treatment. […]

nitrotyrosine (Ntyr) = assay: SIN-1-induced cellular protein nitration, nitrotyrosine immunofluorescence in SH-SY5Y cells; assay type: cell-based, human; settings: 20 μM corrole, SIN-1 700 μM, 24 h
Experimental: To determine the effect of the corroles on SIN-1-induced cellular protein nitration, SH-SY5Y neuroblastoma cells were treated with SIN-1 (700 μM) in the absence or presence of 20 μM of the corroles 1C-Fe, 2C-Mn, and 3C-Mn. Protein nitration was detected by immunofluorescence analysis using a monoclonal antibody against nitrotyrosine (Ntyr), a biological marker of peroxynitrite.

SH-SY5Y cells [4] = assay type: cell-based; settings: for protection against 6-OHDA compared with porphyrins 1P-Fe and 2P-Mn / 6-OHDA-induced cytotoxicity (MTT, cell death ELISA) / cell mortality, morphology and apoptotic nuclei (GAP-43 immunofluorescence, TUNEL, DAPI): 20 μM; for protection against 6-OHDA compared with porphyrins 1P-Fe and 2P-Mn: 6-OHDA 40 μM, immunofluorescence; for 6-OHDA-induced cytotoxicity (MTT, cell death ELISA) / cell mortality, morphology and apoptotic nuclei (GAP-43 immunofluorescence, TUNEL, DAPI): 30 min before 6-OHDA (40 μM)
Experimental: SH-SY5Y cells were cultured in DMEM-Eagle/F-12(HAM) (1:1) containing 10% FCS. Cells were resuspended in medium containing 2% FCS, seeded in microtiter plates (96 wells) and allowed to attach for 24 h. To examine the neuroprotective effect, cells were pretreated for 30 min with corroles 1C-Fe and 5C-Fe (1-20 μM), and were then exposed to 6-OHDA (60 μM) for further 24 h. For neurorescue assessment, SH-SY5Y cells were first treated with 6-OHDA (60 μM) for 0.5 h, 1.5 h, 3 h and 6 h followed by the addition of compounds 1C-Fe and 5C-Fe (10 μM) for further 24 h.
SH-SY5Y cells were pretreated with or without corroles 1C-Fe, 2C-Mn and 3C-Mn and porphyrins 1P-Fe and 2P-Mn (20 μM), 30 min before exposure to 6-OHDA (40 μM) for a subsequent 24 h period. Cell viability was evaluated by MTT test and cell death was assessed using the apoptotic cell death detection ELISA kit. For neurorescue, SH-SY5Y cells were first exposed to 40 μM 6-OHDA for 0.5. 1, 1.5 and 3 h, followed by the addition of the compounds 1C-Fe, 2C-Mn and 3C-Mn (20 μM) and incubated for further 24 h. Growth-associated protein (GAP-43) was detected by fluorescence microscopy using a specific primary antibody. Apoptotic nuclei were determined by terminal deoxynucleotidyl transferase-mediated UTP-digoxigenin nick end labeling analysis. 4′,6-Diamidino-2-phenylnidole (DAPI) staining was applied for nuclear labeling. […]

NSC-34 cells = assay type: cell-based, mouse; settings: 20 μM, 24 h; for SIN-1-induced cytotoxicity (MTT and ELISA): 30 min before SIN-1 (700 μM)
Experimental: The neuroprotective effects of the iron corrole 1C-Fe and analogous porphyrin 1P-Fe against H2O2 insult were further examined in the motor neuron cell line, NSC-34. NSC-34 cell is a hybrid neuroblastoma x spinal cord (NSC) cell line that resembles motor neurons, displaying a multipolar neuron-like phenotype. Mouse motoneuronal NSC-34 cells were pretreated with or without the corroles 1C-Fe or 2C-Mn or the structurally-related porphyrins 1P-Fe, 2P-Mn, respectively, 30 min before exposure to H2O2 (200 μM) or SIN-1 (700 μM) for a subsequent 24 h period. Cell viability (FIGS. 18A, 19A) was evaluated by MTT test and cell death (FIGS. 18B, 19B) was assessed using the apoptotic cell death detection ELISA kit. [The graphs in FIGS. 18A-18B and 19A-19B present results expressed as percentage of untreated control.

SMILES | cytoprotective effect against H2O2-induced toxicity (RIN-m cells [1]) | protective effect against SIN-1 induced toxicity (MTT), comparative (RIN-m cells [2]) | protection against SIN-1 (MTT reduction analysis and ELISA assay) (SH-SY5Y cells [3]) | nitrotyrosine (Ntyr) staining, SIN-1-induced (nitrotyrosine (Ntyr)) | protection against 6-OHDA compared with porphyrins 1P-Fe and 2P-Mn (SH-SY5Y cells [4]) | 6-OHDA-induced cytotoxicity (MTT, cell death ELISA) (SH-SY5Y cells [4]; 24 h) | cell mortality, morphology and apoptotic nuclei (GAP-43 immunofluorescence, TUNEL, DAPI) (SH-SY5Y cells [4]; 24 h) | SIN-1-induced cytotoxicity (MTT and ELISA) (NSC-34 cells) | protective effect against H2O2 toxicity relative to porphyrin 1P-Fe (MTT) (RIN-m cells [1]; 20 μM, 30 min before 35 μM H2O2, 24 h) | protective effect against H2O2 toxicity (MTT) (RIN-m cells [1]; 1-50 μM before 35 μM H2O2) | protective effect against SIN-1 induced toxicity (MTT) (RIN-m cells [2]; 10 μM, 30 min before SIN-1 (500 or 600 μM)) | neurorescue after SIN-1 insult (SH-SY5Y cells [3]; 20 μM added 0.5, 1.5 or 3 h after insult, 24 h (Example 11)) | cytoprotection against different SIN-1 concentrations (SH-SY5Y cells [3]; 25 μM corrole, FIG. 12C) | neuroprotective effect against SIN-1 induced toxicity (SH-SY5Y cells [3]; 10 and 20 μM, 30 min pretreatment, 24 h (Example 11)) | inhibition of neuronal death by SIN-1 (SH-SY5Y cells [3]; 10 and 20 μM, less potent than 2C-Mn and 3C-Mn) | neuroprotective effect against 6-OHDA-induced toxicity (SH-SY5Y cells [4]; 1-20 μM, 30 min before 6-OHDA (60 μM), 24 h) | neurorescue after 6-OHDA insult (SH-SY5Y cells [4]; 6-OHDA (60 μM) for 0.5, 1.5, 3 and 6 h, then 10 μM, 24 h) | protection against H2O2-mediated cytotoxicity (MTT and ELISA) (NSC-34 cells; 30 min before H2O2 (200 μM))
C[n+]1ccc(C2=C3C=CC4=[N+]3[Mn-]35[n]6c2ccc6-c2ccc([n]23)C(c2cc[n+](C)cc2)=c2ccc([n]25)=C4c2c(F)c(F)c(F)c(F)c2F)cc1.[I-].[I-] (centres unmarked) [2C-Mn, 5,15-bis(4-N-methyl-pyridilium)-10-pentafluorophenyl-corrolato manganese(III) diiodide salt] | totally inefficient; also recorded: inefficiency | successful; also recorded: unequivocally in favor of the former; also recorded: improved protective effect | protect, in a dose-dependent manner | totally abolished | remarkable superiority over the porphyrins | significantly attenuated 6-OHDA-induced cytotoxicity | significantly attenuated 6-OHDA-induced cell mortality, improved cell morphology and reduced the number of apoptotic nuclei | significantly attenuated | – | – | – | – | – | – | – | – | – | –
O=S(=O)(O)c1cc2[n]3c1C(c1c(F)c(F)c(F)c(F)c1F)=C1C=CC4=[N+]1[Fe-]31[n]3c(cc(S(=O)(=O)O)c3-2)C(c2c(F)c(F)c(F)c(F)c2F)=c2ccc([n]21)=C4c1c(F)c(F)c(F)c(F)c1F (centres unmarked) [1C-Fe, 2,17-bis(sulfonato)-5,10,15-tris(pentafluorophenyl)-corrolato iron(III)] | showed cytoprotective effects | successful; also recorded: exhibits a greater protective effect | protect, in a dose-dependent manner | partial (albeit quite remarkable) reduction in Ntyr staining | remarkable superiority over the porphyrins | significantly attenuated 6-OHDA-induced cytotoxicity | significantly attenuated 6-OHDA-induced cell mortality, improved cell morphology and reduced the number of apoptotic nuclei | significantly attenuated | exhibit a greater protective effect | significant protective effect | marked protective effect | instigated neurorescue | protect cells against different SIN-1 concentrations | dose-dependent neuroprotective effect | able to inhibit neuronal death | dose-dependent neuroprotective effect | instigated neurorescue | significant protection
